From patent EP2325187A1, “THE HYDROSULFATE OF PRASUGREL, ITS PHARMACEUTICAL COMBINATION AND USES THEREOF” (priority 2008, dated 2010)

Key:
[1] = dog, in vivo, 10 mg/kg
Source text: Six healthy male beagle dogs of around 7-month-old, without statistical difference in their weights, are used in the experiments and fed normally for 2 weeks without receiving any drug. Six beagle dogs are divided randomly into prasugrel bisulfate group and prasugrel hydrochloride group, with 3 dogs in each group. Following the process disclosed in Experimental Example 1 of Chinese Patent Publication No. CN1214031A, the pharmacokinetic parameters of S-methylate in the plasma of the dogs in each group after administration are determined (the administration dosage for both groups is 10mg/kg).

[2] = tested on: platelet aggregation induced by ADP; assay: Inhibition of platelet aggregation induced by ADP (platelet-rich plasma taken from dosed rats); assay type: in vivo
Description: (§1) […] male SD rats weighted 200-300g are provided by the Experimental Animal Center of Lunan Pharmaceutical Group corporation and are divided randomly into 5 groups with 10 rats in each group. The animals are acclimatized for one week before experiment. The animals in the excipient group (equivalent volume of physiological saline), prasugrel maleate group (10mg/kg), prasugrel bisulfate group (10mg/kg) are administered by gastric gavage once each day for 7 days.
(§2) Two days after administered as above, the animals are starved over night. One hour after administered on the second day, the animals are anaesthetized by intraperitoneal injection of urethane, and then celiotomized to separate the abdominal aorta. A polyethylene cannula is inserted to collect 5 ml of blood into a test tube (in the tube is placed beforehand 0.5 ml of 3.8% sodium citrate solution, i.e. the ratio of the anticoagulant solution and blood is 1:9). The whole blood is centrifuged at 1000 rpm for 4 min. 1 ml of platelet-rich plasma (PRP) is taken. The remaining liquid is centrifuged at 3000 rpm for further 8 min. 1 ml of platelet-poor plasma (PPP) is taken. The two samples are placed separately in two plastic test tubes under a constant temperature of (37±0.1)°C. Using ADP (30 ul/tube) and collagen (30 ul/tube) as aggregation inducers, the maximum aggregation intensity is determined and the inhibition rate is calculated. Rate of inhibiting aggregation = (aggregation intensity for excipient group-aggregation intensity for experimental group)/aggregation intensity for excipient group × 100% [formula]

[3] = tested on: platelet aggregation induced by collagen; assay: Inhibition of platelet aggregation induced by collagen (platelet-rich plasma taken from dosed rats); assay type: in vivo
Description: as §1, §2

rats = assay: Determination of the rate of hemorrhage (hyperemia, oedema, hemorrhage in the gastric mucosa); assay type: in vivo
Description: as §1
After the rate of inhibiting aggregation is determined, the rats are sacrificed and dissected. The appearances of hyperemiam, oedema, hemorrhage in the gastric mucosa are examined with the aid of a magnifier, and the rats developed with hyperemiam, oedema, hemorrhage in the gastric mucosa are recorded into corresponding test groups as cases of hemorrhage.

[4] = rats, 10mg/kg by gastric gavage, n=10 per group, gastric mucosa

With `CC(=O)Oc1cc2c(s1)CCN(C(C(=O)C1CC1)c1ccccc1F)C2` (stereo not drawn) [Prasugrel Bisulfate, 2-acetyloxy-5-(α-cycloproylcarbonyl-2-fluorobenzyl)-4,5,6,7-tetrahydrothieno[3,2-C]pyridine bisulfate] the AUC [1] was 82.3 ± 7.6 µg·min/mL, the Cmax [1] was 1210 ± 130 ng/mL and the bioavailability [1] was “better bioavailability than prasugrel hydrochloride”. For the same molecule, the “ADP Aggregation Intensity (%)” value ([2]; 10mg/kg by gastric gavage once each day, inducer ADP 30 ul/tube, maximum aggregation intensity) was 0.336±0.075 %, the “inhibition to platelet aggregation induced by ADP” value ([2]; 10mg/kg, result in words) was “very significant inhibition” and the inhibition at 10 mg/kg ([2]; Rattus norvegicus, Platelet, po, 10mg/kg by gastric gavage once each day, inducer ADP 30 ul/tube, relative to excipient group, read-out: ADP Inhibition Rate (%)) was 48.5 ± 10.6%. The “Collagen Aggregation Intensity (%)” value ([3]; 10mg/kg by gastric gavage once each day, inducer collagen 30 ul/tube, maximum aggregation intensity) was 0.346±0.083 %, the “inhibition to platelet aggregation induced by collagen” value ([3]; 10mg/kg, result in words) was “very significant inhibition” and the inhibition at 10 mg/kg ([3]; Rattus norvegicus, Platelet, po, 10mg/kg by gastric gavage once each day, inducer collagen 30 ul/tube, relative to excipient group, read-out: Collagen Inhibition Rate (%)) was 54.3 ± 13.5%. The rate of hemorrhage (rats; rat, in vivo) was “significantly lower than that in the prasugrel maleate group”, the “Cases of Hemorrhage” value (rats; [4]) was 1 and the “Rate of Hemorrhage (%)” value (rats; [4]) was 10%.
